Patent US9943509B2, “Methods, compounds, and compositions for the treatment of musculoskeletal diseases” (UNIVERSITY OF SOUTHERN CALIFORNIA, priority 2013, dated 2018)
“Also recorded” adds a separate entry of the source.

How the values were obtained:
[1] = system: cardiac fibrogenesis and remodeling; details: Iwata et al., 2005; Grobe et al., 2007; cited from earlier work
[2] = system: mice chronically infused with AngII; details: AngII/A(1-7) co-treatment vs AngII infusion alone; Cisternas et al., 2015; cited from earlier work
[3] = system: Dmd^mdx mice; assay: Histological evaluation of H&E stained diaphragm; assay type: in vivo, mouse; details: subcutaneous, Compound 7 0.5, 1.0, 2.0 mg/kg/day, A(1-7) 0.5 mg/kg/day, 9 weeks, 5 random 40× fields, vs saline
Procedure: (§1) FIG. 4: Histological evaluation: Six different subcutaneously delivered treatment groups (n=6/group) were evaluated—wild-type (WT) C57BL/10SnJ control mice plus five groups of Dmd^mdx (C57BL/10ScSn-Dmd^mdx/J) mice: vehicle (saline/Tween 20), A(1-7) 0.5 mg/kg/day, and Compound 7 at three doses (0.5, 1.0, and 2.0 mg/kg/day). At necropsy, following 9 weeks of treadmill exercise (12-15 m/min 3 times per week) and treatment, diaphragms were collected, fixed for 2 days in foramalin, paraffin embedded, sectioned, and H&E stained.
FIG. 5: Histological evaluation: H&E stained diaphragm section, prepared as described in FIG. 4, were analyzed by for degenerating and regenerating fibers as well as inflammation. For each animal (n=6 per treatment group) 5 random 40× fields were taken across the diaphragm section and analyzed. (A) Degenerating fibers were counted as deadened fibers co-localized with an open space. […] Compound 7 across the dosage was similar to Dmd^mdx mice treated with A(1-7). (B) The number of regenerating fibers per field were counted as healthy fibers appearing with basophilic staining. […] (C) Inflammation was quantified as loci of 10 or more inflammatory cells.
(§2) Methods: 10 weeks old male Dmd^mdx mice were exercised at 12-15 m/min for 30 min 3 times a week for 10 weeks. The absence of dystrophin in Dmd^mdx mice produces a vastly different phenotype than dystrophin deficiency in humans does [De Luca et al., 2003]. […] In this study, 10 weeks of exercise during treatment was used. There were six different treatment groups—Wild Type plus five groups of Dmd^mdx mice: Vehicle, Compound 7 0.5 mg/kg/day, Compound 7 1 mg/kg/day, Compound 7 2.0 mg/kg/day, and 0.5 mg/kg/day Angiotensin (1-7).
Necropsy: At the conclusion of the 9-week observation period (19 weeks of age), all animals were euthanized, and tissue samples and bone marrow (below) were collected. The tissues collected were the diaphragm, gastrocnemius muscle, soleus muscle, tibialis anterior muscle, plantaris muscle and heart. The gastrocnemius muscle, soleus muscle, tibialis anterior muscle, plantaris muscle from the left leg as well as the diaphragm and heart were fixed in formalin and stored in 70% EtOH for hematoxylin and eosin (H&E) staining.
Histological Evaluation of the Diaphragm: The diaphragm was embedded in paraffin, sectioned and stained by H & E (hematoxylin and eosin). The parameters were assessed include (1) the number of regenerating fibers as defined by basophilic fibers; (2) number of degenerating fibers and the number of inflammatory loci (clusters of 10 or more inflammatory cells). Five random 40× fields per diaphragm were evaluated.

[4] = system: Dmd^mdx and Sgcd−/− mouse models of muscular dystrophy; details: Dmd^mdx and Sgcd−/− mice; Acuña et al., 2014; Sabharwal et al., 2012; cited from earlier work
[5] = system: Dmd^mdx mice; assay: Bone marrow mesenchymal stem cell (MSC) counts by CFU-F assay after treatment; assay type: in vivo, mouse; details: subcutaneous, Compound 7 0.5, 1.0 and 2.0 mg/kg/day, A(1-7) 0.5 mg/kg, 9 weeks, femur marrow cultured 8 days, vs vehicle
Procedure: as §1, with “3:” for “4: Histological evaluation:”, “bone marrow was collected from both femurs, cultured 8 days, and mesenchymal stem cell (MSC) counts” for “diaphragms”, “recorded.” for “collected, fixed for 2 days in foramalin, paraffin embedded, sectioned, and H&E stained.”
as §2
Necropsy: At the conclusion of the 9-week observation period (19 weeks of age), all animals were euthanized, and tissue samples and bone marrow (below) were collected. The tissues collected were the diaphragm, gastrocnemius muscle, soleus muscle, tibialis anterior muscle, plantaris muscle and heart. […]

[6] = system: Dmd^mdx mice; assay: Inverted grid test of grip strength (hang time) in treadmill-exercised mice; assay type: in vivo, mouse
Procedure: (§3) FIG. 1: Inverted Grid Test: Mouse hang times were recorded on an inverted grid test of grip strength following 8 weeks of treadmill exercise (12-15 m/min 3 times per week) and treatment. Six different subcutaneously delivered treatment groups (n=6/group) were evaluated—wild-type (WT) C57BL/10SnJ control mice plus five groups of Dmd^mdx (C57BL/10ScSn-Dmd^mdx/J) mice: vehicle (saline/Tween 20), A(1-7) 0.5 mg/kg/day, and Compound 7 at three doses (0.5, 1.0, and 2.0 mg/kg/day).
(§4) Effect of administration of a non-peptidic small molecule Mas agonist (“Mas agonist”), Compound 7, once daily by subcutaneous injection for 10 weeks in comparison with Angiotensin (1-7), a peptide shown in the literature to improve outcomes in mdx mice.
(§5) Test Articles: (1) Compound 7 in Tween in saline (0.5, 1 or 2 mg/kg/day); (2) A(1-7) in saline (0.5 mg/kg/day)
as §2, with “(1-7). […]” for “(1-7).”

[7] = system: Dmd^mdx mice; assay: Weights test of forelegs grip strength (grip score); assay type: in vivo, mouse
Procedure: as §3, with “2: Performance” for “1: Inverted Grid Test: Mouse hang times were recorded”, “the weights” for “an inverted grid”, “test and calculation” for “test”, “grip score [Deacon, 2013] allowed a measure of forepaw grip” for “grip”, “strength was recorded” for “strength”, “9” for “8”
as §4, §5
Methods: 10 weeks old male Dmd^mdx mice were exercised at 12-15 m/min for 30 min 3 times a week for 10 weeks. […]
If the mouse is unsuccessful at lifting a particular weight for 3 seconds in all 3 attempts then the weight lower than the current weight was recorded as the last successful weight lifted by the mouse. The number of seconds (0 or 1 or 2) was recorded for the highest weight the mouse can lift. […]

Compound: Asp-Arg-Val-Tyr-Ile-His-Pro (DRVYIHP; printed: Asp-Arg-Val-Tyr-Ile-His-Pro) [A(1-7), endogenous Mas receptor heptapeptide ligand, purchased from BACHEM]
- cardiac fibrogenesis and remodeling (interstitial myocardial fibrosis, myocyte hypertrophy) [1]: block cardiac fibrogenesis and remodeling
- gastrocnemius muscle fiber diameter [2]: prevented a decrease in gastrocnemius muscle fiber diameter
- performance on the weights test [2]: increased
- number of degenerating fibers in diaphragm [3]: reduction in the number of degenerative fibers
- fibrosis [4]: reduced fibrosis
- measures of muscle strength [4]: improved measures of muscle strength
- oxidative stress [4]: reduced
- bone marrow MSC counts [5]: increased bone marrow MSC counts

Compound: CCCCOC(=O)NS(=O)(=O)c1ccc(OC(F)(F)F)cc1-c1ccc(Cn2ccnc2)cn1 [Compound 7, butyl ((2-(5-((1H-imidazol-1-yl)methyl)pyridin-2-yl)-4-(trifluoromethoxy)phenyl)sulfonyl)carbamate]
- inflammation: loci of 10 or more inflammatory cells in diaphragm [3]: significantly increased number of regenerating fibers
- number of degenerating fibers in diaphragm [3]: reduction in the number of degenerative fibers; also recorded: reduce degenerating fibers
- number of regenerating (basophilic) fibers per field in diaphragm [3]: significantly increased number of regenerating fibers
- bone marrow MSC counts [5]: increased bone marrow MSC counts
- muscle strength by the inverted grid test ([6]; once daily subcutaneous, treadmill exercise, summary of FIG. 1): increased muscle strength
- hang time on the inverted grid test ([6]; subcutaneous 2.0 mg/kg/day, 8 weeks of treadmill exercise and treatment, vs vehicle treated Dmd^mdx, n=6/group, t-test): increase in hang time
- weights test of grip strength, comparison with A(1-7) ([7]; Compound 7 0.5, 1 or 2 mg/kg/day vs A(1-7) 0.5 mg/kg/day): superior to A(1-7)
- muscle strength by the weights test of grip strength ([7]; once daily subcutaneous, treadmill exercise, summary of FIG. 2): increased muscle strength
